According to patent publication US6845328B2, “Screening methods using the crystal structure of ribosomal protein L11/GTPase activating region rRNA complex” (University of Utah Research Foundation, priority 1999, dated 2005):
“Also recorded” adds a separate entry of the source.

What was measured:
[1] = system: E. coli S30 lysate and luciferase mRNA; details: bioluminescence; cited from earlier work
70S ribosomes / EF-G = 70S ribosomes / EF-G (Escherichia coli, UniProt P0A7J7); details: cited from earlier work
23S RNA = details: equilibrium dialysis; read-out: dissociation constant of thiostrepton/23S RNA; cited from earlier work
GTPase centre-59 mer = assay: Filter binding assay of thiostrepton to GTPase centre RNA (96-well, displacement format); details: read-out: dissociation constant for the thiostrepton/GTPase centre-59 mer complex
Procedure: Thiostrepton binding to GTPase centre RNA can be monitored by a filter binding assays (Uchiumi et al., 1995, Biol. Chem., 270(50):29889-93; Draper et al., 1988, Methods Enzymol., 164:203-20). The filter binding assay can be transformed to a 96-well format using Millipore MHAB (mixed cellulose ester) 96-well plates. The dissociation constant for the thiostrepton/GTPase centre-59 mer complex of 1 uM is in good accordance with the literature. Additionally, filter binding can show the cooperativity in binding of thiostrepton and L11. Thermotoga maritima ribosomes are known to be sensitive to thiostrepton (Londei et al., 1988, J. Bacteriol., 170(9):4353-60), although 100-fold less than B. stearothermophilus ribosomes. The affinity of thiostrepton for Thermotoga GTPase center RNA in vitro has not yet been determined.
^35S- or ^32P-labelled RNA is prepared by transcription in the presence of radiolabelled nucleotides. The labelled RNAs are purified by gel electrophoresis or chromatography by reverse-phase. […] Association constants between RNA and thiostrepton in the presence or absence of inhbitor are determined in 100 ul reactions containing 10 mM Tris-HCl (pH 7.4), 3 mM MgCl2, 175 mM NH4Cl and 5% v/v DMSO. […]
The relative amounts of RNA retained in the presence and absence of inhibitor can be determined by quantitation of the radioactivity on each filter. […]

50S subunits = 50S subunits (Escherichia coli, UniProt P0A7J7); details: cited from earlier work
intact ribosomes = intact ribosomes (Escherichia coli, UniProt P0A7J7); details: higher than for 23S RNA; cited from earlier work
GAR RNA = details: RNA without L11; read-out: Kd, affinity for the RNA alone; cited from earlier work
isolated L11 = isolated L11 (Escherichia coli, UniProt P0A7J7); details: L11 without RNA; cited from earlier work
[2] = molecular target: T1, Thermotoga maritima ribosomes (Thermotoga maritima, UniProt P29395); details: less than B. stearothermophilus ribosomes; cited from earlier work
T1 sequence (P29395 2-141 limits assumed): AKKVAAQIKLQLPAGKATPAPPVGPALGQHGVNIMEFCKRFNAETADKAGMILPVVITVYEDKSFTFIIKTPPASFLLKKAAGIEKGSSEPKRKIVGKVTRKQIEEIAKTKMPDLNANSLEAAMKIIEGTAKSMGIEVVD

Sequence of 70S ribosomes / EF-G (P0A7J7 2-142): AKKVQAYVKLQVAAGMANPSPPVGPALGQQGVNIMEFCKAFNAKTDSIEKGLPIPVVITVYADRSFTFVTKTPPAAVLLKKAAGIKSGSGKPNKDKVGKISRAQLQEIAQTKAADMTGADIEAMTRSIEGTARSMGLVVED
Sequence of intact ribosomes (P0A7J7 2-142): as above
Sequence of 50S subunits (P0A7J7 2-142): as above
Sequence of isolated L11 (P0A7J7 whole entry): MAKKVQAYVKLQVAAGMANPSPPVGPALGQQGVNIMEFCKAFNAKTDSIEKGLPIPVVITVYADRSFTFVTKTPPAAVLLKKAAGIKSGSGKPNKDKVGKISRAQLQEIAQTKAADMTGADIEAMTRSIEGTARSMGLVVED

Row | SMILES | yield of active luciferase compared to the control [1] | effect on hydrolysis of GTP by EF-G (70S ribosomes / EF-G) | Kd (23S RNA) [nM] | Kd (GTPase centre-59 mer) [nM] | binding to 50S subunits (50S subunits) | affinity to intact ribosomes relative to 23S RNA (intact ribosomes) | Kd (GAR RNA) [nM] | binding to isolated L11 (isolated L11) | sensitivity of ribosomes to thiostrepton relative to B. stearothermophilus ribosomes [2] [fold]
1 | O=C(N[C@H](CO)[C@H](O)c1ccc([N+](=O)[O-])cc1)C(Cl)Cl [chloramphenicol] | decrease in yield of active luciferase | – | – | – | – | – | – | – | –
2 | C/C=C(\NC(=O)c1csc(-c2csc(-c3ccc4c(n3)-c3csc(n3)[C@H]([C@@H](C)O)NC(=O)c3csc(n3)[C@H](C(C)C)NC(=O)c3csc(n3)/C(=C/C)NC(=O)[C@H]([C@@H](C)O)NC(=O)c3csc-4n3)n2)n1)C(=O)NC[C@@H](C)O [micrococcin] | – | stimulates GTP hydrolysis by EF-G | – | – | – | – | – | – | –
3 | C=C(NC(=O)C(=C)NC(=O)c1csc(C2=N[C@@H]3c4csc(n4)[C@H]4NC(=O)c5csc(n5)[C@H]([C@](C)(O)[C@@H](C)O)NC(=O)[C@H]5CSC(=N5)/C(=C/C)NC(=O)[C@H]([C@@H](C)O)NC(=O)c5csc(n5)[C@]3(CC2)NC(=O)[C@H](C)NC(=O)C(=C)NC(=O)[C@H](C)NC(=O)[C@H]([C@@H](C)CC)N[C@@H]2C=Cc3c([C@H](C)O)cc(nc3[C@H]2O)C(=O)O[C@@H]4C)n1)C(N)=O [thiostrepton] | decrease in yield of active luciferase | inhibits elongation factor G (EF-G)-dependent GTP hydrolysis; also recorded: inhibits hydrolysis of GTP by EF-G | 230 | 1000 | binds essentially irreversibly to 50S subunits | 100-1000 fold | 400 | does not bind isolated L11 | 100
